The target of assay [1] is T1, OCTN2 (Homo sapiens, UniProt O76082).
T1 construct: gene SLC22A5; endogenous full-length transporter in intact H460 cells; identity supported by OCTN2 siRNA knockdown (siRNA L-007456-00-0005)
T1 sequence (O76082 1-557): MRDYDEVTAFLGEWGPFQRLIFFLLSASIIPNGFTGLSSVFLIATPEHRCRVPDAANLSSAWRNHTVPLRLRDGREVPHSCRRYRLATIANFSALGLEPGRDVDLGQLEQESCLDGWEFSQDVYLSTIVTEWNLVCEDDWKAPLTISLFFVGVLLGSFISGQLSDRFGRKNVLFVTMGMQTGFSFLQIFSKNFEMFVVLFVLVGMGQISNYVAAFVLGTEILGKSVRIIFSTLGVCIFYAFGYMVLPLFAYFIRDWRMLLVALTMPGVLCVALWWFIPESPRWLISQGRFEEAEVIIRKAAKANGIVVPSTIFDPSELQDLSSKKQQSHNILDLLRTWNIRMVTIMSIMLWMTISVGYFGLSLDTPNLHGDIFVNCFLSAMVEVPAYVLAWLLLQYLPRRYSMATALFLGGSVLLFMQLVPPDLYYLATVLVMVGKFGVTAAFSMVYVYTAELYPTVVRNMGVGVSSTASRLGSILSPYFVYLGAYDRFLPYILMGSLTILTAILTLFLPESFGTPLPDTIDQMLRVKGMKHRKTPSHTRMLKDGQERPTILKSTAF
The experiment in a line: inhibition of […]FMC uptake in H460 cells by co-incubation. The settings on record: HBSS, 37 °C, 60 min; inhibitor concentration of this test not given. It counts as cell-based.

The target in assay [2] is T1, OCTN2. In words: competitive inhibition of […]FMC uptake in H460 cells, gamma counting. The settings on record: HBSS, 37 °C, 60 min; [18F]FMC as tracer; endogenous transporter; n = 3. It counts as cell-based.

For `C[N+](C)(C)NCCC(=O)[O-]` [meldonium], the “% reduction of [18F]FMC uptake” value on OCTN2 [1] is given as 78.1 ± 10.2%.
`C[N+](C)(C)C[C@H](O)CC(=O)O` [ʟ-carnitine]: the concentration for half-maximal inhibition (IC50) on OCTN2 [2] was determined as 4.8 ± 1.6 µM.

Usually IC50 stands for the concentration that inhibits the measured activity by half. The low end stands for greater potency in that assay, the high end for weaker potency in that assay.

The record behind these values is article PMC12948245, “Fluorinated Carnitine Derivatives as Tools to Visualise Carnitine Transport and Metabolism” (Advanced Science, 2025).
